Measurements published in publication PMC9944328 (Nature Communications, 2023).
Like-named read-outs stand apart in the source and are kept apart here.

System: SSTR2 mutants
Experiment: SSTRs Gi-mediated cAMP inhibition, GloSensor, HEK293, 5 μM forskolin, 15 min room temperature (SSTR2 mutants)
Type: cell-based, human
Parameters: Best-fit Bottom, cAMP inhibition / Best-fit Top, cAMP inhibition / Span, cAMP inhibition / Bottom (best-fit value) / Top (best-fit value) / Span (best-fit value) / Span (best-fit) / Bottom (best-fit) / Top (best-fit) / Best-fit Bottom / Best-fit Top / Best-fit Span / Top / Span: scale not given here
Procedure: The levels of the intracellular 3′, 5′-cyclic AMP (cAMP) were measured by the GloSensor cAMP assay (Promega) as described in the previous studies[28],[41] which has been widely used. The human full-length SSTRs and mutants were cloned into the pcDNA3.1+ vector with a HA signal sequence followed by a Flag tag at the N-terminus. HEK293 cells (ATCC, CRL-1573) were seeded into 6-well microplates at a density of 1.0 × 10^6 cells/well and cultured for 24 h at 37 °C with 5% CO2. Cells were then co-transfected with SSTR wild-type or mutants and GloSensor plasmids. After 24 h of transfection, the cells were dissociated with TrypLE™ Express Enzyme (1X) (Thermo Fisher Scientific) and collected by centrifugation at 500 × g for 5 min. Then the collected cells were suspended in Hank’s balanced salt solution [HBSS (Thermo Fisher Scientific)] supplemented with […] (YEASEN), and then the suspension cells were seeded into 96-well plates with 90 μl/well. After incubating at room temperature for 40 min, 5 μM forskolin and ligands diluted in HBSS were added to each well and the plates were incubated at room temperature for 15 min. […] were measured using the Synergy H1 microplate reader (BioTek) and the data presented are means of at least three independent experiments.

## C[C@@H](O)[C@@H]1NC(=O)[C@H](CCCCN)NC(=O)[C@@H](Cc2c[nH]c3ccccc23)NC(=O)[C@H](Cc2ccccc2)NC(=O)[C@@H](NC(=O)[C@H](N)Cc2ccccc2)CSSC[C@@H](C(=O)N[C@H](CO)[C@@H](C)O)NC1=O [octreotide]
SSTR2 I195A-1, run 1
  Best-fit Top, cAMP inhibition: 99.51
  LogEC50, cAMP inhibition: -8.167
  Span, cAMP inhibition: 98.37
SSTR2 I195A-1, run 1, read-out: EC50, cAMP inhibition
  EC50: 6.8 nM
SSTR2 I195A-2, run 2
  Best-fit Bottom, cAMP inhibition: -0.2331
  Best-fit Top, cAMP inhibition: 94.69
  LogEC50, cAMP inhibition: -8.189
  Span, cAMP inhibition: 94.92
SSTR2 I195A-2, run 2, read-out: EC50, cAMP inhibition
  EC50: 6.47 nM
SSTR2 I195A-3, run 3
  Best-fit Bottom, cAMP inhibition: 2.536
  Best-fit Top, cAMP inhibition: 107
  LogEC50, cAMP inhibition: -8.29
  Span, cAMP inhibition: 104.4
SSTR2 I195A-3, run 3, read-out: EC50, cAMP inhibition
  EC50: 5.13 nM
SSTR2 L99A-1, run 1
  Best-fit Bottom, cAMP inhibition: -0.05878
  Best-fit Top, cAMP inhibition: 83.27
  LogEC50, cAMP inhibition: -8.764
  Span, cAMP inhibition: 83.33
SSTR2 L99A-1, run 1, read-out: EC50, cAMP inhibition
  EC50: 1.72 nM
SSTR2 L99A-2, run 2
  Best-fit Bottom, cAMP inhibition: 3.887
  Best-fit Top, cAMP inhibition: 89.82
  LogEC50, cAMP inhibition: -8.724
  Span, cAMP inhibition: 85.94
SSTR2 L99A-2, run 2, read-out: EC50, cAMP inhibition
  EC50: 1.89 nM
SSTR2 L99A-3, run 3
  Best-fit Bottom, cAMP inhibition: 6.223
  Best-fit Top, cAMP inhibition: 104
  LogEC50, cAMP inhibition: -9.836
  Span, cAMP inhibition: 97.82
SSTR2 L99A-3, run 3, read-out: EC50, cAMP inhibition
  EC50: 0.146 nM
SSTR2 Q102A-1, run 1
  Best-fit Bottom, cAMP inhibition: 2.423
  Best-fit Top, cAMP inhibition: 108.7
  LogEC50, cAMP inhibition: -7.926
  Span, cAMP inhibition: 106.2
SSTR2 Q102A-1, run 1, read-out: EC50, cAMP inhibition
  EC50: 11.9 nM
SSTR2 Q102A-2, run 2
  Best-fit Bottom, cAMP inhibition: 0.4721
  Best-fit Top, cAMP inhibition: 108.9
  LogEC50, cAMP inhibition: -7.92
  Span, cAMP inhibition: 108.4
SSTR2 Q102A-2, run 2, read-out: EC50, cAMP inhibition
  EC50: 12 nM
SSTR2 Q102A-3, run 3
  Best-fit Bottom, cAMP inhibition: 3.028
  Best-fit Top, cAMP inhibition: 105.6
  LogEC50, cAMP inhibition: -7.863
  Span, cAMP inhibition: 102.6
SSTR2 Q102A-3, run 3, read-out: EC50, cAMP inhibition
  EC50: 13.7 nM
SSTR2 T194A-1, run 1
  Best-fit Top, cAMP inhibition: 84.79
  LogEC50, cAMP inhibition: -7.026
  Span, cAMP inhibition: 77.01
SSTR2 T194A-1, run 1, read-out: EC50, cAMP inhibition
  EC50: 94.2 nM
SSTR2 T194A-2, run 2
  Best-fit Top, cAMP inhibition: 94.26
  LogEC50, cAMP inhibition: -7.558
  Span, cAMP inhibition: 87.81
SSTR2 T194A-2, run 2, read-out: EC50, cAMP inhibition
  EC50: 27.7 nM
SSTR2 T194A-3, run 3
  Best-fit Top, cAMP inhibition: 95.49
  LogEC50, cAMP inhibition: -7.626
  Span, cAMP inhibition: 91.25
SSTR2 T194A-3, run 3, read-out: EC50, cAMP inhibition
  EC50: 23.7 nM
SSTR2 V103A-1, run 1
  Best-fit Bottom, cAMP inhibition: 3.112
  Best-fit Top, cAMP inhibition: 97.5
  LogEC50, cAMP inhibition: -8.546
  Span, cAMP inhibition: 94.39
SSTR2 V103A-1, run 1, read-out: EC50, cAMP inhibition
  EC50: 2.85 nM
SSTR2 V103A-2, run 2
  Best-fit Bottom, cAMP inhibition: -14.84
  Best-fit Top, cAMP inhibition: 85.83
  LogEC50, cAMP inhibition: -8.054
  Span, cAMP inhibition: 100.7
SSTR2 V103A-2, run 2, read-out: EC50, cAMP inhibition
  EC50: 8.84 nM
SSTR2 V103A-3, run 3
  Best-fit Bottom, cAMP inhibition: -3.777
  Best-fit Top, cAMP inhibition: 89.06
  LogEC50, cAMP inhibition: -7.947
  Span, cAMP inhibition: 92.84
SSTR2 V103A-3, run 3, read-out: EC50, cAMP inhibition
  EC50: 11.3 nM
SSTR2 Y50A-1, run 1
  Best-fit Bottom, cAMP inhibition: 9.945
  Best-fit Top, cAMP inhibition: 106.2
  LogEC50, cAMP inhibition: -9.897
  Span, cAMP inhibition: 96.25
SSTR2 Y50A-2, run 2
  Best-fit Bottom, cAMP inhibition: -3.529
  Best-fit Top, cAMP inhibition: 103.6
  LogEC50, cAMP inhibition: -10.54
  Span, cAMP inhibition: 107.2
SSTR2 Y50A-2, run 2, read-out: EC50, cAMP inhibition
  EC50: 0.0288 nM
SSTR2 Y50A-3, run 3
  Best-fit Bottom, cAMP inhibition: 9.945
  Best-fit Top, cAMP inhibition: 106.2
  LogEC50, cAMP inhibition: -9.897
  Span, cAMP inhibition: 96.25
SSTR2 Y50A-3, run 3, read-out: EC50, cAMP inhibition
  EC50: 0.127 nM
Suppl. Tables 4/5, SSTR2 T194(45.51)H, n=3
  Emax: 88.27±7.62 %WT SSTR2
Suppl. Tables 4/5, SSTR2 V103(2.64)N, n=3
  Emax: 94.00±3.65 %WT SSTR2
Suppl. Tables 4/5, SSTR2 V103(2.64)N, n=3, read-out: EC50
  EC50: 0.23 nM
T194(45.51)H in SSTR2
  Receptor activation of mutant: significantly reduced receptor activation
T194A-1, run 1
  Bottom (best-fit value): 7.78
T194A-2, run 2
  Bottom (best-fit value): 6.447
T194A-3, run 3
  Bottom (best-fit value): 4.244
T287A-1, run 1
  Bottom (best-fit value): 2.841
  LogEC50 (best-fit value): -9.206
  Span (best-fit value): 86.99
  Top (best-fit value): 89.83
T287A-1, run 1, read-out: EC50 (best-fit value)
  EC50: 0.623 nM
T287A-2, run 2
  Bottom (best-fit value): -10.83
  LogEC50 (best-fit value): -9.285
  Span (best-fit value): 118.8
  Top (best-fit value): 108
T287A-2, run 2, read-out: EC50 (best-fit value)
  EC50: 0.519 nM
T287A-3, run 3
  Bottom (best-fit value): 2.734
  LogEC50 (best-fit value): -9.182
  Span (best-fit value): 94.95
  Top (best-fit value): 97.68
T287A-3, run 3, read-out: EC50 (best-fit value)
  EC50: 0.658 nM
V103(2.64)N mutant of SSTR2
  EC50 of mutant versus wild-type: retained a similar EC50 as wild-type receptor
W188A-1, run 1
  Bottom (best-fit value): -1.717
  LogEC50 (best-fit value): -9.896
  Span (best-fit value): 106.4
  Top (best-fit value): 104.7
W188A-1, run 1, read-out: EC50 (best-fit value)
  EC50: 0.127 nM
W188A-2, run 2
  Bottom (best-fit value): 1.331
  LogEC50 (best-fit value): -10.14
  Span (best-fit value): 108.6
